Source: patent publication US20140088151A1, “ALHYDROXYMETHYL BIARYL BENZOTRIAZOLE DERIVATIVES” (priority 2011, published 2014)

Target: T1, recombinant human mGluR2 (Homo sapiens, UniProt Q14416)
T1 construct: expressed in transfected cells
Assay: FLIPR Ca2+ mobilization assay, potentiation of mGluR2
Format: cell-based
Details: CHO dhfr- cells expressing human mGluR2 and Gα16, EC20 glutamate (900 nM)
Method: Potencies are determined as follows. The compounds of the present invention may be tested in a fluorescence laser imaging plate reader (FLIPR) based assay. This assay is a common functional assay to monitor Ca^2+ mobilization in whole cells expressing recombinant receptor coupled with a promiscuous G-protein. CHO dhfr− cells stably expressing recombinant human mGluR2 and Gα16 loaded with Fluo-4 AM (Invitrogen, Carlsbad Calif.) are treated with varying concentrations of compounds and the Ca^2+ response is monitored on a FLIPR384 (Molecular Devices, Sunnydale Calif.) for agonist activity. The potentiation response is monitored after a subsequent addition of an EC20 concentration of glutamate (900 nM). The maximum calcium response at each concentration of compound for agonism or potentiation are plotted as dose responses curves fitted with a four parameters logistic equation giving EC50 and Hill coefficient using the iterative non linear curve fitting software program.

T1 sequence (Q14416 19-872): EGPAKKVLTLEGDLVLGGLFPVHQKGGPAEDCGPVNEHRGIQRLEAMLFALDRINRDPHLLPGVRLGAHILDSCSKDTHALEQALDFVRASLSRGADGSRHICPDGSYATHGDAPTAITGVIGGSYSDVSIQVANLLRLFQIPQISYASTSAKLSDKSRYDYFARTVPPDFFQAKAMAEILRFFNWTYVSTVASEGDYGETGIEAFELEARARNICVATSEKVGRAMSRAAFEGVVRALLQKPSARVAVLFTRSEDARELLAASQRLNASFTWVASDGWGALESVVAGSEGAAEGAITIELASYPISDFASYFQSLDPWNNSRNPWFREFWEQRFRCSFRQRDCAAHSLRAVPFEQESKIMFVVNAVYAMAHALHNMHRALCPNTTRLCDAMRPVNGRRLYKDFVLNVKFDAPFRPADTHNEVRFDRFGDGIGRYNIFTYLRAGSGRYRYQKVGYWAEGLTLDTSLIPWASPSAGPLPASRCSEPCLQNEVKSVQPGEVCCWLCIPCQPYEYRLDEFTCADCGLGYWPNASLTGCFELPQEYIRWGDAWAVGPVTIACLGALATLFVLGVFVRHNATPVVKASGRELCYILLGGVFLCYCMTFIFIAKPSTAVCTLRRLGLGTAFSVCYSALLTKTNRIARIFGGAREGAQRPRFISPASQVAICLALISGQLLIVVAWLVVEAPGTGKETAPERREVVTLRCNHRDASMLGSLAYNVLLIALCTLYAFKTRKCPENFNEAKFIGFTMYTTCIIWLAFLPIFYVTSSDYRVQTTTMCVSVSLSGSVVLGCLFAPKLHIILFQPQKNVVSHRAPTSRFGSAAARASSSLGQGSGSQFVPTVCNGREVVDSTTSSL

SMILES | EC50 [nM]
OCc1ccc(-c2ccc3c(nnn3CC3CC3)c2C(F)(F)F)c(F)n1 [Example 1, {5-[1-(Cyclopropylmethyl)-4-(trifluoromethyl)-1H-benzotriazol-5-yl]-6-fluoropyridin-2-yl}methanol] | 27
OCc1ccc(-c2ccc3c(nnn3CC3CC3)c2C(F)(F)F)cc1 [Example 2, {4-[1-(cyclopropylmethyl)-4-(trifluoromethyl)-1H-benzotriazol-5-yl]phenyl}methanol] | 11
COC(=O)c1ccc(-c2ccc3c(nnn3CC3CC3)c2C(F)(F)F)c(F)c1 [Example 3, methyl 4-[1-(cyclopropylmethyl)-4-(trifluoromethyl)-1H-benzotriazol-5-yl]-3-fluorobenzoate] | 15
OCC(O)c1ccc(-c2ccc3c(nnn3CC3CC3)c2C(F)(F)F)c(F)n1 (centres unmarked) [Example 4, 1-{5-[1-(cyclopropylmethyl)-4-(trifluoromethyl)-1H-benzotriazol-5-yl]-6-fluoropyridin-2-yl}ethane-1,2-diol] | 130
CC(O)c1ccc(-c2ccc3c(nnn3CC3CC3)c2C(F)(F)F)cc1 (centres unmarked) [Example 5, 1-{4-[1-(cyclopropylmethyl)-4-(trifluoromethyl)-1H-benzotriazol-5-yl]phenyl}ethanol] | 8.3
COC(C)c1ccc(-c2ccc3c(nnn3CC3CC3)c2C(F)(F)F)cc1 (centres unmarked) [Example 6, 1-(cyclopropylmethyl)-5-[4-(1-methoxyethyl)phenyl]-4-(trifluoromethyl)-1H-benzotriazole] | 31
CC(C)(O)c1ccc(-c2ccc3c(nnn3CC3CC3)c2C(F)(F)F)cc1 [Example 7, 2-{4-[1-(cyclopropylmethyl)-4-(trifluoromethyl)-1H-benzotriazol-5-yl]phenyl}propan-2-ol] | 2.1
OC1CCOc2cc(-c3ccc4c(nnn4CC4CC4)c3C(F)(F)F)ccc21 (centres unmarked) [Example 8, 7-[1-(cyclopropylmethyl)-4-(trifluoromethyl)-1H-benzotriazol-5-yl]-3,4-dihydro-2H-chromen-4-ol] | 3.9
